# Results taken from US20250339569A1, “CARBONIC ANHYDRASE IX LIGANDS” (priority 2021, published 2025).
# Read-outs that look alike come from different tables or passages of the source. Starred links: 1 amine or outer side, 2 acyl side, 3 side chain; linkers in the order of their positions; H or OH if unused. Positions of bridges follow the written chain, without caps; N, C: chain ends. Non-standard residues stand in square brackets, D forms with d. Residues, ends and D or L forms follow the SMILES beside them. ξ: configuration not given here. *: point of attachment. X3 = O=C(O)CN1CCN(CC(=O)O)CCN(CC(=O)NCCCOCCOCCOCCCN*)CCN(CC(=O)O)CC1; X57 = O=C(Cn1ccccc1=O)Nc1cccc(C[C@H](N[*:1])C(=O)[*:2])c1; DOTA = O=C(O)CN1CCN(CC(=O)O)CCN(CC(=O)*)CCN(CC(=O)O)CC1; Trp(5-OH) = N[C@@H](Cc1c[nH]c2ccc(O)cc12)C(=O)O; ξTrp(5-Me) = Cc1ccc2[nH]cc(CC(N)C(=O)O)c2c1; Bip = N[C@@H](Cc1ccc(-c2ccccc2)cc1)C(=O)O; Phe(4-NH2) = Nc1ccc(C[C@H](N)C(=O)O)cc1; mXylylene = c1cc(C[*:1])cc(C[*:2])c1; X36 = NS(=O)(=O)Cc1ccc(C(=O)*)cc1; X2 = O=C(CN1CCC(N[*:1])CC1)[*:2]; Suc = O=C(CCC(=O)[*:2])[*:1]; Isovaleryl = CC(C)CC(=O)*; X67 = CS(=O)(=O)CC(=O)*; Sar = CNCC(=O)O
# Biological target: T1, CAIX-expressing human HT-29 colorectal cancer cells (Homo sapiens, UniProt Q16790)
# T1 construct: CAIX-expressing human HT-29 colorectal cancer cells; host or cells: HT-29 human colorectal cancer cells
# Experiment: FACS binding assay (IC50 determination, competition with tracer 3BP-2776 or 3BP-4149)
# Conditions: 4° C., 1 hour, read-out: pIC50 category (activity) (converted)
# Procedure, shortened: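 HT-29 cells in FACS buffer (PBS, 1% FCS) at 500.000 cells/ml were exposed to compounds competing with a labelled tracer, with biotinylated compounds detected by 1 μg/mL APC-streptavidin for 30 min on ice. APC/Cy5 median fluorescence was read by flow cytometry and IC50 derived by 4PL fit.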
# [1] = FACS competition on HT-29 cells, Tracer ID 3BP-2776 (10 nM, biotin-labeled)
# [2] = FACS binding assay, HT-29 cells, competition with tracer 3BP-2776 (10 nM, biotin-labeled)
# [3] = FACS binding assay, HT-29 cells, competition with tracer 3BP-4149 (3 nM, Cy5-labeled)
SMILES,IC50 [1],also measured
CC(C)C[C@@H]1NC(=O)[C@H](Cc2cccc(NC(=O)Cn3cc(C(=O)NO)nn3)c2)NC(=O)[C@H](CC(=O)O)NC(=O)[C@H]2CCCN2C(=O)[C@H](CCC(=O)O)NC(=O)[C@@H](NC(=O)[C@H](CCC(N)=O)NC(=O)CN2CCN(C(=O)CN3CCN(CC(=O)O)CCN(CC(=O)O)CCN(CC(=O)O)CC3)CC2)CSCc2cccc(c2)CSC[C@@H](C(N)=O)NC(=O)[C@H](CO)NC(=O)[C@H](Cc2c[nH]c3ccccc23)NC(=O)[C@H]([C@@H](C)O)NC1=O [3BP-4847],–,IC50 [2]: 100 to 794 nM
CC(C)C[C@@H]1NC(=O)[C@H](Cc2ccc(-c3ccccc3)cc2)NC(=O)[C@H](CC(=O)O)NC(=O)[C@H]2CCCN2C(=O)[C@H](CCC(=O)O)NC(=O)[C@@H](NC(=O)[C@H](Cc2ccc(O)cc2)NC(=O)[C@@H](NC(=O)CN2CCC(NC(=O)CN3CCN(CC(=O)O)CCN(CC(=O)O)CCN(CC(=O)O)CC3)CC2)C(C)C)CSCc2cccc(c2)CSC[C@@H](C(N)=O)NC(=O)[C@H](CO)NC(=O)[C@H](Cc2c[nH]c3ccccc23)NC(=O)[C@H]([C@@H](C)O)NC1=O [3BP-4131] ({DOTA}-[X2]VYCE[dP]D[Bip]LTWSC-NH2; linker 4-13 via mXylylene),–,IC50 [2]: < 10 nM
CC(=O)N[C@H](C(=O)N[C@@H](Cc1ccc(O)cc1)C(=O)N[C@H]1CSCc2cccc(c2)CSC[C@@H](C(N)=O)NC(=O)[C@H](CCC(N)=O)NC(=O)[C@H](Cc2c[nH]c3ccccc23)NC(=O)[C@@H]([C@H](C)O)NC(=O)[C@H](CC(C)C)NC(=O)[C@H](Cc2c[nH]c3ccccc23)NC(=O)[C@H](CC(=O)O)NC(=O)CNC(=O)[C@H](CCC(=O)O)NC1=O)C(C)C [3BP-3049] (Ac-VYCEGDWL[dT]WQC-NH2; linker 3-12 via mXylylene),100 to 794 nM,–
CC(=O)N[C@H](C(=O)N[C@@H](Cc1ccc(O)cc1)C(=O)N[C@H]1CSCc2cccc(c2)CSC[C@@H](C(N)=O)NC(=O)[C@H](CCC(N)=O)NC(=O)[C@H](Cc2c[nH]c3ccccc23)NC(=O)CNC(=O)[C@H](CC(C)C)NC(=O)[C@H](Cc2c[nH]c3ccccc23)NC(=O)[C@H](CC(=O)O)NC(=O)CN(C)C(=O)[C@H](CCC(=O)O)NC1=O)C(C)C [3BP-3307] (Ac-VYCE[Sar]DWLGWQC-NH2; linker 3-12 via mXylylene),< 10 nM,–
CC(=O)N[C@@H](CO)C(=O)N[C@@H](Cc1ccc(O)cc1)C(=O)N[C@H]1CSCc2cccc(c2)CSC[C@@H](C(N)=O)NC(=O)[C@H](CO)NC(=O)[C@H](Cc2c[nH]c3ccccc23)NC(=O)[C@H]([C@@H](C)O)NC(=O)[C@H](CC(C)C)NC(=O)[C@H](Cc2c[nH]c3ccccc23)NC(=O)[C@H](CC(=O)O)NC(=O)[C@H]2CCCN2C(=O)[C@H](CCC(=O)O)NC1=O [3BP-3566] (Ac-SYCE[dP]DWLTWSC-NH2; linker 3-12 via mXylylene),< 10 nM,–
CC(C)C[C@@H]1NC(=O)[C@H](Cc2c[nH]c3ccccc23)NC(=O)[C@H](CC(=O)O)NC(=O)[C@@H](C)NC(=O)[C@H](CCC(=O)O)NC(=O)[C@@H](NC(=O)[C@H](Cc2ccc(O)cc2)NC(=O)[C@@H](NC(=O)CCC(=O)NCCCOCCOCCOCCCNC(=O)CN2CCN(CC(=O)O)CCN(CC(=O)O)CCN(CC(=O)O)CC2)C(C)C)CSCc2cccc(c2)CSC[C@@H](C(N)=O)NC(=O)[C@H](CCC(N)=O)NC(=O)[C@H](Cc2c[nH]c3ccccc23)NC(=O)[C@H]([C@@H](C)O)NC1=O [3BP-3270] ({X3-Suc}-VYCE[dA]DWLTWQC-NH2; linker 3-12 via mXylylene),< 10 nM,–
CC(C)C[C@@H]1NC(=O)[C@H](Cc2ccc(NC(=O)c3ccc(CS(N)(=O)=O)cc3)cc2)NC(=O)[C@H](CC(=O)O)NC(=O)[C@H]2CCCN2C(=O)[C@H](CCC(=O)O)NC(=O)[C@@H](NC(=O)[C@H](Cc2ccc(O)cc2)NC(=O)[C@@H](NC(=O)CN2CCC(NC(=O)CN3CCN(CC(=O)O)CCN(CC(=O)O)CCN(CC(=O)O)CC3)CC2)C(C)C)CSCc2cccc(c2)CSC[C@@H](C(N)=O)NC(=O)[C@H](CO)NC(=O)[C@H](Cc2c[nH]c3ccccc23)NC(=O)[C@H]([C@@H](C)O)NC1=O [3BP-4399] ({DOTA}-[X2]VYCE[dP]D[Phe(4-NH2)](X36)LTWSC-NH2; linker 4-13 via mXylylene),–,IC50 [3]: 10 to 79.4 nM
CC(C)C[C@@H]1NC(=O)[C@H](Cc2ccc(NC(=O)CS(C)(=O)=O)cc2)NC(=O)[C@H](CC(=O)O)NC(=O)[C@H]2CCCN2C(=O)[C@H](CCC(=O)O)NC(=O)[C@@H](NC(=O)[C@H](Cc2ccc(O)cc2)NC(=O)[C@@H](NC(=O)CN2CCC(NC(=O)CN3CCN(CC(=O)O)CCN(CC(=O)O)CCN(CC(=O)O)CC3)CC2)C(C)C)CSCc2cccc(c2)CSC[C@@H](C(N)=O)NC(=O)[C@H](CO)NC(=O)[C@H](Cc2c[nH]c3ccccc23)NC(=O)[C@H]([C@@H](C)O)NC1=O [3BP-4360] ({DOTA}-[X2]VYCE[dP]D[Phe(4-NH2)](X67)LTWSC-NH2; linker 4-13 via mXylylene),–,IC50 [3]: 100 to 794 nM
CC(C)C[C@@H]1NC(=O)[C@H](Cc2cccc(NC(=O)Cn3ccccc3=O)c2)NC(=O)[C@H](CC(=O)O)NC(=O)[C@H]2CCCN2C(=O)[C@H](CCC(=O)O)NC(=O)[C@@H](NC(=O)[C@H](Cc2ccc(O)cc2)NC(=O)[C@@H](NC(=O)CN2CCC(NC(=O)CN3CCN(CC(=O)O)CCN(CC(=O)O)CCN(CC(=O)O)CC3)CC2)C(C)C)CSCc2cccc(c2)CSC[C@@H](C(N)=O)NC(=O)[C@H](CO)NC(=O)[C@H](Cc2c[nH]c3ccccc23)NC(=O)[C@H]([C@@H](C)O)NC1=O [3BP-4370] ({DOTA}-[X2]VYCE[dP]D[X57]LTWSC-NH2; linker 4-13 via mXylylene),–,IC50 [3]: 10 to 79.4 nM
CC(=O)N[C@H](C(=O)N[C@@H](Cc1ccc(O)cc1)C(=O)N[C@H]1CSCc2cccc(c2)CSC[C@@H](C(N)=O)NC(=O)[C@H](CCC(N)=O)NC(=O)[C@H](Cc2c[nH]c3ccccc23)NC(=O)[C@H]([C@@H](C)O)NC(=O)[C@H](CC(C)C)NC(=O)C(Cc2c[nH]c3ccc(C)cc23)NC(=O)[C@H](CC(=O)O)NC(=O)CN(C)C(=O)[C@H](CCC(=O)O)NC1=O)C(C)C (some centres unmarked) [3BP-3290] (Ac-VYCE[Sar]D[ξTrp(5-Me)]LTWQC-NH2; linker 3-12 via mXylylene),< 10 nM,–
CC(=O)N[C@H](C(=O)N[C@@H](Cc1ccc(O)cc1)C(=O)N[C@H]1CSCc2cccc(c2)CSC[C@@H](C(N)=O)NC(=O)[C@H](CCC(N)=O)NC(=O)[C@H](Cc2c[nH]c3ccccc23)NC(=O)[C@H]([C@@H](C)O)NC(=O)[C@H](CC(C)C)NC(=O)[C@H](Cc2c[nH]c3ccc(O)cc23)NC(=O)[C@H](CC(=O)O)NC(=O)CN(C)C(=O)[C@H](CCC(=O)O)NC1=O)C(C)C [3BP-3310] (Ac-VYCE[Sar]D[Trp(5-OH)]LTWQC-NH2; linker 3-12 via mXylylene),100 to 794 nM,–
CC(=O)N[C@H](C(=O)N[C@@H](Cc1ccc(O)cc1)C(=O)N[C@H]1CSCc2cccc(c2)CSC[C@@H](C(N)=O)NC(=O)[C@H](CCC(N)=O)NC(=O)[C@H](Cc2c[nH]c3ccccc23)NC(=O)[C@H]([C@@H](C)O)NC(=O)[C@H](CC(C)C)NC(=O)[C@H](Cc2c[nH]c3ccccc23)NC(=O)[C@H](CC(=O)O)NC(=O)CNC(=O)[C@H](C)NC1=O)C(C)C [3BP-3052] (Ac-VYCAGDWLTWQC-NH2; linker 3-12 via mXylylene),< 10 nM,–
CC(C)CC(=O)N[C@H](C(=O)N[C@@H](Cc1ccc(O)cc1)C(=O)N[C@H]1CSCc2cccc(c2)CSC[C@@H](C(N)=O)NC(=O)[C@H](CCC(N)=O)NC(=O)[C@H](Cc2c[nH]c3ccccc23)NC(=O)[C@H]([C@@H](C)O)NC(=O)[C@H](CC(C)C)NC(=O)[C@H](Cc2c[nH]c3ccccc23)NC(=O)[C@H](CC(=O)O)NC(=O)CNC(=O)[C@H](CCC(=O)O)NC1=O)C(C)C [3BP-3111] (Isovaleryl-VYCEGDWLTWQC-NH2; linker 3-12 via mXylylene),< 10 nM,–
CC(=O)N[C@H](C(=O)N[C@@H](Cc1ccc(O)cc1)C(=O)N[C@H]1CSCc2cccc(c2)CSC[C@@H](C(N)=O)NC(=O)[C@H](CCC(N)=O)NC(=O)[C@H](Cc2c[nH]c3ccccc23)NC(=O)[C@H]([C@@H](C)O)NC(=O)[C@H](CC(C)C)NC(=O)[C@H](Cc2c[nH]c3ccccc23)NC(=O)[C@@H](CC(=O)O)NC(=O)CNC(=O)[C@H](CCC(=O)O)NC1=O)C(C)C [3BP-3047] (Ac-VYCEG[dD]WLTWQC-NH2; linker 3-12 via mXylylene),100 to 794 nM,–

# The next lines start with results.
IC50 [1],SMILES,also measured
< 10 nM,CC(C)C[C@@H]1NC(=O)[C@H](Cc2c[nH]c3ccccc23)NC(=O)[C@H](CO)NC(=O)[C@H]2CCCN2C(=O)[C@H](CCC(=O)O)NC(=O)[C@@H](NC(=O)[C@H](Cc2ccc(O)cc2)NC(=O)[C@@H](NC(=O)CN2CCC(NC(=O)CN3CCN(CC(=O)O)CCN(CC(=O)O)CCN(CC(=O)O)CC3)CC2)C(C)C)CSCc2cccc(c2)CSC[C@@H](C(N)=O)NC(=O)[C@H](CO)NC(=O)[C@H](Cc2c[nH]c3ccccc23)NC(=O)[C@H]([C@@H](C)O)NC1=O [3BP-3595] ({DOTA}-[X2]VYCE[dP]SWLTWSC-NH2; linker 4-13 via mXylylene),–
< 10 nM,CC(=O)N[C@H](C(=O)N[C@@H](Cc1ccc(O)cc1)C(=O)N[C@H]1CSCc2cccc(c2)CSC[C@@H](C(N)=O)NC(=O)[C@H](CO)NC(=O)[C@H](Cc2c[nH]c3ccccc23)NC(=O)[C@@H]2CCC(=O)NCCCC[C@H](NC(=O)[C@H]3CCCN3C(=O)[C@H](CCC(=O)O)NC1=O)C(=O)N[C@@H](Cc1c[nH]c3ccccc13)C(=O)N[C@@H](CC(C)C)C(=O)N2)C(C)C [3BP-3890] (Ac-VYCE[dP]KWLEWSC-NH2; linker 3-12 via mXylylene; lactam 6-9),–
< 10 nM,CC[C@H](C)[C@H](NC(C)=O)C(=O)N[C@@H](Cc1ccc(O)cc1)C(=O)N[C@H]1CSCc2cccc(c2)CSC[C@@H](C(N)=O)NC(=O)[C@H](CO)NC(=O)[C@H](Cc2c[nH]c3ccccc23)NC(=O)[C@H]([C@@H](C)O)NC(=O)[C@H](CC(C)C)NC(=O)[C@H](Cc2c[nH]c3ccccc23)NC(=O)[C@H](CC(=O)O)NC(=O)[C@H]2CCCN2C(=O)[C@H](CCC(=O)O)NC1=O [3BP-3568] (Ac-IYCE[dP]DWLTWSC-NH2; linker 3-12 via mXylylene),–
